EPA's ToxValDB 9.5 (doi:10.2903/j.efsa.2006.58r)

Key:
[1] = system: Daphnia magna; settings: chronic/long-term; duration: 21 days
[2] = system: Rattus norvegicus
[3] = system: Oncorhynchus mykiss; settings: acute; duration: 96 hours; mortality
[4] = system: Apis mellifera; settings: acute, mortality
[5] = system: Colinus virginianus
[6] = system: Plant; settings: not reported; no effects
[7] = system: Anas platyrhynchos; settings: acute; oral; unspecified; mortality
[8] = system: Bibionidae; settings: chronic/long-term; duration: 40 days
[9] = system: Pontoscolex corethrurus; settings: for NOEC: chronic/long-term
[10] = system: Pimephales promelas; settings: chronic/long-term; duration: 32 days
[11] = system: Aphidius rhopalosiphi; test: LR50; higher = less toxic; settings: not reported; mortality
[12] = system: Typhlodromus pyri; test: LR50; higher = less toxic; settings: not reported; mortality

Work on `COc1cc(C)c(C(=O)c2c(OC)ccc(Br)c2C)c(OC)c1OC` [Metrafenone] yielded an NOEC [1] of 0.225 mg/L, an LD50 ([2]; acute, oral, mortality) of over 5000 mg/kg-day and an NOAEL ([2]; chronic, duration: 2 years, oral, histopathology: neoplastic) of 25 mg/kg-day. It also gave an NOAEL ([2]; reproduction developmental) of 811 mg/kg-day, an NOAEL ([2]; subchronic, duration: 13 weeks, oral, organ weight) of 43 mg/kg-day and an LC50 [3] of over 0.82 µg/mL. For the same compound, the LD50 ([4]; dermal) was over 100 µg/piece, the LD50 ([4]; oral, unspecified) was over 114 µg/piece and the NOEC ([5]; reproduction developmental) was 125 mg/kg-day. The NOEC ([5]; short-term, oral, diet) was over 948 mg/kg-day, the LEL [6] was 300 g/ha and the LD50 [7] was over 2020 mg/kg-day. It also gave an NOEC [8] of 1 mg/L, an LC50 ([9]; acute, mortality) of over 250 mg/kg and an NOEC [9] of 10.4 mg/kg. It also gave an NOEC ([9]; reproduction) of 3 mg/kg, an NOEC [10] of 0.228 mg/L and an LR50 [11] of over 300 g/ha. The LR50 [12] was over 500 g/ha.
